Test results reported in ChEMBL document CHEMBL1201862, “PubChem BioAssay data set” (2004).
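Following 48 hours of exposure in 96-well plates, responses at five concentrations were used to interpolate endpoints linearly. The concentration for 50% growth inhibition is given as GI50.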 Calls of active or inactive are those of the source. Rule as the data show it: active = GI50 up to about 1.1 µM and inactive = higher.

Legend:
Assay in all cases: NCI-60 cell line screen, 48 h
OVCAR-5 = system: OVCAR-5
MOLT-4 = system: MOLT-4
UACC-257 = system: UACC-257
HCT-116 = system: HCT-116
NCI-H522 = system: NCI-H522
MDA-MB-231 = system: MDA-MB-231
HL-60 = system: HL-60
TK-10 = system: TK-10
KM12 = system: KM12
SNB-75 = system: SNB-75
HT-29 = system: HT-29
A549 = system: A549
M14 = system: M14
COLO 205 = system: COLO 205
SK-MEL-5 = system: SK-MEL-5
SN12C = system: SN12C
HCC 2998 = system: HCC 2998
CAKI-1 = system: CAKI-1
Malme-3M = system: Malme-3M
SK-MEL-2 = system: SK-MEL-2

SMILES | GI50 (OVCAR-5) | GI50 (MOLT-4) | GI50 (UACC-257) | GI50 (HCT-116) | GI50 (NCI-H522) | GI50 (MDA-MB-231) | GI50 (HL-60) | GI50 (TK-10) | GI50 (KM12) | GI50 (SNB-75) | GI50 (HT-29) | GI50 (A549) | GI50 (M14) | GI50 (COLO 205) | GI50 (SK-MEL-5) | GI50 (SN12C) | GI50 (HCC 2998) | GI50 (CAKI-1) | GI50 (Malme-3M) | GI50 (SK-MEL-2)
COc1ccc(C(=CCC(C)C2CCC3[C@@H]4C(OC(C)=O)CC5CC(OC(C)=O)CC[C@]5(C)C4CC(OC(C)=O)[C@]23C)c2ccc(OC)cc2)cc1 (some centres undefined) | 72.8 µM (inactive) | 17.1 µM (inactive) | 99.5 µM (inactive) | 66.1 µM (inactive) | 23.8 µM (inactive) | > 100 µM (inactive) | 8.02 µM (inactive) | > 100 µM (inactive) | 76.6 µM (inactive) | 34.8 µM (inactive) | > 100 µM (inactive) | > 100 µM (inactive) | 19.1 µM (inactive) | > 100 µM (inactive) | > 100 µM (inactive) | > 100 µM (inactive) | > 100 µM (inactive) |  |  | 
CC1=CC(=O)C2=C(C)CCC3C(C)C(=O)OC3C12 (centres undefined) | > 100 µM (inactive) | > 100 µM (inactive) | > 100 µM (inactive) | > 100 µM (inactive) | > 100 µM (inactive) | > 100 µM (inactive) | > 100 µM (inactive) | > 100 µM (inactive) | > 100 µM (inactive) |  | > 100 µM (inactive) | > 100 µM (inactive) | > 100 µM (inactive) | > 100 µM (inactive) | > 100 µM (inactive) | > 100 µM (inactive) | > 100 µM (inactive) | > 100 µM (inactive) | > 100 µM (inactive) | > 100 µM (inactive)
COc1ccc(Cc2c(N)[nH]c(=O)[nH]c2=O)cc1 | > 100 µM (inactive) |  | > 100 µM (inactive) | > 100 µM (inactive) | > 100 µM (inactive) | > 100 µM (inactive) |  | > 100 µM (inactive) | > 100 µM (inactive) | > 100 µM (inactive) | > 100 µM (inactive) | > 100 µM (inactive) | > 100 µM (inactive) | > 100 µM (inactive) | > 100 µM (inactive) | > 100 µM (inactive) | > 100 µM (inactive) | > 100 µM (inactive) | > 100 µM (inactive) | > 100 µM (inactive)
O=C1Cc2cn[nH]c2-c2ccccc2N1 | 30.3 µM (inactive) | 20.1 µM (inactive) | 23.5 µM (inactive) | 26.5 µM (inactive) | 21.4 µM (inactive) | > 45.5 µM (inactive) | 29.8 µM (inactive) | 30.2 µM (inactive) | 33.2 µM (inactive) | 79.3 µM (inactive) | 34.9 µM (inactive) | 38 µM (inactive) | 22.5 µM (inactive) | 29 µM (inactive) | 26.4 µM (inactive) | > 44.4 µM (inactive) | 26.2 µM (inactive) |  | > 46.7 µM (inactive) | 26.9 µM (inactive)
O=C1CSC(c2c[nH]c3ccccc23)N1c1ccc(Cl)cc1Cl (centres undefined) | > 100 µM (inactive) | > 100 µM (inactive) | > 100 µM (inactive) | > 100 µM (inactive) | > 100 µM (inactive) | > 100 µM (inactive) | > 100 µM (inactive) | > 100 µM (inactive) | > 100 µM (inactive) | 0.865 µM (active) | > 100 µM (inactive) | > 100 µM (inactive) | > 100 µM (inactive) | > 100 µM (inactive) | > 100 µM (inactive) | > 100 µM (inactive) | > 100 µM (inactive) |  |  | 
COC(=NC(C)C)NC(C)C | > 100 µM (inactive) | > 100 µM (inactive) |  | > 100 µM (inactive) |  | > 100 µM (inactive) | > 100 µM (inactive) | > 100 µM (inactive) |  | > 100 µM (inactive) |  | > 100 µM (inactive) | > 100 µM (inactive) | > 100 µM (inactive) | > 100 µM (inactive) | > 100 µM (inactive) | > 100 µM (inactive) |  |  | > 100 µM (inactive)
CCOC(=O)c1c(N)sc2c1C(C(=O)OCC)CCC2 (centres undefined) | > 100 µM (inactive) | > 100 µM (inactive) | > 100 µM (inactive) | 79.8 µM (inactive) |  | > 100 µM (inactive) | 53.3 µM (inactive) | > 100 µM (inactive) | > 100 µM (inactive) | > 100 µM (inactive) | > 100 µM (inactive) | > 100 µM (inactive) | > 100 µM (inactive) | > 100 µM (inactive) | 98.2 µM (inactive) | > 100 µM (inactive) | > 100 µM (inactive) |  | > 100 µM (inactive) | > 100 µM (inactive)
COC(=O)c1ccc(CN2CCc3c([nH]c4ccccc34)C2CO)o1 (centres undefined) |  | > 10 µM (inactive) | > 10 µM (inactive) |  | > 10 µM (inactive) | > 10 µM (inactive) | > 10 µM (inactive) | > 10 µM (inactive) | > 10 µM (inactive) | > 10 µM (inactive) | > 10 µM (inactive) | > 10 µM (inactive) | > 10 µM (inactive) | > 10 µM (inactive) | > 10 µM (inactive) | > 10 µM (inactive) | > 10 µM (inactive) | > 10 µM (inactive) | > 10 µM (inactive) | 
CC(C)=CCC/C(C)=C/CC/C(C)=C/[C@@H]1[C@@H](CO)[C@]1(C)CC/C=C(\C)CCC=C(C)C | 49.4 µM (inactive) | 28.9 µM (inactive) | 74.3 µM (inactive) | 31.2 µM (inactive) | 17.1 µM (inactive) | 21.6 µM (inactive) |  | 55.2 µM (inactive) | 35.7 µM (inactive) | > 100 µM (inactive) | 42.8 µM (inactive) | 39.8 µM (inactive) | 91.4 µM (inactive) | 63.1 µM (inactive) | 46 µM (inactive) | 41.1 µM (inactive) |  | 46.3 µM (inactive) | > 100 µM (inactive) | 43.8 µM (inactive)
c1ccc(C2=NCCc3cc4c(cc32)OCO4)cc1 | > 100 µM (inactive) |  | > 100 µM (inactive) |  | > 100 µM (inactive) | > 100 µM (inactive) |  | > 100 µM (inactive) | > 100 µM (inactive) |  |  | > 100 µM (inactive) | > 100 µM (inactive) | > 100 µM (inactive) | > 100 µM (inactive) | > 100 µM (inactive) | > 100 µM (inactive) | > 100 µM (inactive) | > 100 µM (inactive) | > 100 µM (inactive)
CC(C)(CC(=O)Nc1ccccc1)C(=O)O | > 100 µM (inactive) | > 100 µM (inactive) | > 100 µM (inactive) | > 100 µM (inactive) |  | > 100 µM (inactive) | > 100 µM (inactive) | > 100 µM (inactive) | > 100 µM (inactive) |  | > 100 µM (inactive) | > 100 µM (inactive) | > 100 µM (inactive) | > 100 µM (inactive) | > 100 µM (inactive) | > 100 µM (inactive) |  | > 100 µM (inactive) |  | > 100 µM (inactive)
COc1cc2c3c(c1O)-c1c(ccc(OC)c1OC)CC3N(C)CC2 (centres undefined) | > 100 µM (inactive) | > 100 µM (inactive) | > 100 µM (inactive) | > 100 µM (inactive) | > 100 µM (inactive) | > 100 µM (inactive) | 40.9 µM (inactive) | > 100 µM (inactive) | > 100 µM (inactive) | > 100 µM (inactive) | 77.4 µM (inactive) | > 100 µM (inactive) | > 100 µM (inactive) | > 100 µM (inactive) | > 100 µM (inactive) | > 100 µM (inactive) |  | > 100 µM (inactive) |  | > 100 µM (inactive)
COc1ccc2c(-c3ccc(OCCN(C)C)cc3)c(Oc3ccc(Cl)cc3)c(=O)oc2c1 | 15.6 µM (inactive) | 2.13 µM (inactive) | 2.05 µM (inactive) | 2.63 µM (inactive) | 4.07 µM (inactive) | 6.79 µM (inactive) |  | 7.82 µM (inactive) | 3.66 µM (inactive) | 7.19 µM (inactive) | 6.56 µM (inactive) | 4.48 µM (inactive) | 1.74 µM (inactive) | 2.23 µM (inactive) | 1.64 µM (inactive) | 20.2 µM (inactive) | 2.83 µM (inactive) | 11.1 µM (inactive) | 1.74 µM (inactive) | 5 µM (inactive)
OCC(O)COCn1cc(Cn2ncc3c(NCc4ccccc4)ncnc32)nn1 (centres undefined) | > 100 µM (inactive) | > 100 µM (inactive) | > 100 µM (inactive) | > 100 µM (inactive) | 18.7 µM (inactive) | > 100 µM (inactive) | > 100 µM (inactive) | > 100 µM (inactive) | > 100 µM (inactive) |  | > 100 µM (inactive) | > 100 µM (inactive) | > 100 µM (inactive) | > 100 µM (inactive) | > 100 µM (inactive) | > 100 µM (inactive) | > 100 µM (inactive) | > 100 µM (inactive) |  | > 100 µM (inactive)
C[C@@](Br)(C(=O)O)[C@H](Br)C(=O)O | > 100 µM (inactive) | > 100 µM (inactive) | > 100 µM (inactive) | > 100 µM (inactive) |  | > 100 µM (inactive) | > 100 µM (inactive) | > 100 µM (inactive) | > 100 µM (inactive) | 81.3 µM (inactive) | > 100 µM (inactive) | > 100 µM (inactive) | > 100 µM (inactive) | > 100 µM (inactive) | > 100 µM (inactive) | > 100 µM (inactive) | > 100 µM (inactive) | 55.5 µM (inactive) | > 100 µM (inactive) | 
COc1cc(CNc2nc3cc(C(F)(F)F)ccc3nc2C)cc(OC)c1OC |  | 10.9 µM (inactive) | 16.6 µM (inactive) | 19.3 µM (inactive) | 18.3 µM (inactive) | 14.5 µM (inactive) | 16.5 µM (inactive) | 15.7 µM (inactive) | 15.9 µM (inactive) | 19.4 µM (inactive) | 17.2 µM (inactive) | 28.4 µM (inactive) | 12.4 µM (inactive) | 12.8 µM (inactive) | 19.7 µM (inactive) | 14.7 µM (inactive) | 18.3 µM (inactive) | 24.7 µM (inactive) | 17.5 µM (inactive) | 
